Test results reported in patent US20260001876A1, “Compounds and Their Use as PDE4 Activators” (Mironid Limited, priority 2022, published 2026).

Key:
[1] = biological target: T1, full-length human PDE4D5 (long isoform) (Homo sapiens, UniProt Q08499); assay: PDE assay ([3H]cAMP hydrolysis) with PDE4D5 cell lysate cytosol fraction; assay type: biochemical; details: 100 μM test compound; mean % increase in counts over basal activity
T1 construct: cell lines that stably expressed the full-length human PDE4 long isoforms and the full length human PDE4B2 short isoform; made in house; cytosol fraction of the cell lysate, not purified
Method: (§1) HEK 293 and MDCK cells (Public Health England, Cell Culture Collections) were maintained in Dulbecco's Modified Eagle's Medium (DMEM) supplemented with 10% (v/v) fetal bovine serum (FBS) (Seralab), 2 mM L-glutamine and 100 U/mL penicillin streptomycin cocktail (ThermoFisher); termed complete media. Clonal HEK 293 cell lines were maintained in complete media supplemented with 0.6 mg/ml G418 (Enzo Life Sciences). Mouse inner medullary collecting duct (m-IMCD3) cells [American Type Culture Collection (ATCC)] were maintained in media consisting of DMEM/Hams F-12 50/50 Mix (DMEM F12; Corning) supplemented with penicillin streptomycin cocktail (100 U/mL) and FBS (10% v/v) (DMEM F12-10% FBS).
(§2) Experiment 1: Measurement of Modulation of Enzyme Activity by PDE4 Long Form Activators of the Present Invention Using Full-Length Human PDE4 Isoforms; Long Forms PDE4D5, PDE4C3, PDE4B1 and Short Form PDE4B2
(§3) (Marchmont, R. J. and Houslay, M. D. Biochem. J. 187:381-92, 1980)
(§4) Exogenous expression of long form PDE4 enzymes and stable cell line generation For transient transfection of exogenous PDE4 long isoforms, HEK 293 cells were transfected with pcDNA3.1 or pDEST™ PDE4 expression vectors using Lipofectamine LTX/Plus reagent (Invitrogen) as outlined by the manufacturer.
(§5) Where stable cell lines were generated the clonal isolates were expanded to obtain cell lines that stably expressed the full-length human PDE4 long isoforms and the full length human PDE4B2 short isoform. These were called the HEK-PDE4D5, HEK-PDE4B1 and HEK-PDE4B2 cell lines, respectively.
(§6) Lysate Preparation (Using PDE4D5 as a Typical Example)
(§7) HEK-PDE4D5 cells were seeded out in 100 mm plates and incubated at 37° C. in an atmosphere of 5% CO2, 95% air. Cell lysates were prepared using KHEM buffer [50 mM KCl, 10 mM EGTA, 50 mM HEPES (pH 7.2), 1.92 mM MgCl2].
(§8) To prepare the cell lysates, the 100 mm plates containing the cells were placed on ice and washed with ice-cold PBS (phosphate buffered saline, pH 7.4). KHEM buffer (500 μL) was added to the cells. Cells were then scraped off the plate and triturated using a needle (BD Microlance™ 0.8, 40 mm). The lysed cells were then centrifuged at 2000 rpm for 10 minutes to remove cell debris and the supernatant (cell lysate containing recombinant PDE4D5) was transferred to a fresh tube and kept on ice.
(§9) Cytosol Fraction Preparation (Using PDE4D5 as a Typical Example)
(§10) The cell lysate containing recombinant PDE4D5 was transferred into a centrifuge tube and placed into an ultracentrifuge (BECKMAN COULTER) and spun at high speed (100,000g) for 30 minutes at 4° C. The cytosol fraction was then collected and its protein amount determined using a BCA protein assay.
(§11) PDE Assay—(Using PDE4D5 as a Typical Example)
(§12) PDE assays were performed in thin-walled V-bottomed 96-well plates. […]

[2] = biological target: T2, full-length human PDE4B2 (short isoform) (Homo sapiens, UniProt Q07343); assay: PDE assay ([3H]cAMP hydrolysis) with PDE4B2 cell lysate cytosol fraction; assay type: biochemical; details: 100 μM test compound; mean % increase in counts over basal activity
T2 construct: the full length human PDE4B2 short isoform; made in house; cytosol fraction of the cell lysate, not purified
Method: as §1, §2, §3, §4, §5, §6, §7, §8, §9, §10, §11, §12

[3] = system: m-IMCD3 cells expressing PDE4 long forms; assay: cAMP levels in assay media of PGE2-stimulated m-IMCD3 3D cell culture; assay type: cell-based; details: Mus musculus, mIMCD3; 3 μM test compound; compared to 100% for (DMSO + PGE2); read-out: cAMP level (% of PGE2-stimulated)
Method: as §1
Experiment 2: Reduction of CAMP Levels in m-IMCD3 Cell Culture Treated with PDE4 Long Form Activators
Activation of intracellular PDE4 long forms leads to a reduction of both intracellular CAMP and externalised cAMP (Omar et al., PNAS 116:13320-13329, 2019). This reduction may be measured in the cell culture media supernatant of 3D cystic cell cultures, such as in the m-IMCD3 cell cyst suppression assay described in Experiment 3.
Following the completion of the m-IMCD3 cell cyst suppression assay (Experiment 3), the CAMP levels in the assay media from individual or pooled assay wells was measured using a CAMP ELISA kit (Enzo Life Sciences) or a LANCE Ultra CAMP kit (PerkinElmer) according to the manufacturer's instructions.
Treatment with PDE4 long form activators reduced CAMP levels in PGE2-stimulated m-IMCD3 cell culture.

m-IMCD3 cells = assay: Inhibition of PGE2-stimulated in vitro cyst formation in m-IMCD3 cells (3D culture); assay type: cell-based; details: Mus musculus, mIMCD3, 144 h, mean cyst area, 100% for (DMSO + PGE2) and 0% for DMSO control, 6 days of culture; for activity at 3 µM: read-out: % Cyst area* after incubation with 3 μM test compound
Summary of the method: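 m-IMCD3 cells in a 3D collagen I/Matrigel matrix at 37 °C, 5% CO2 were dosed 18–24 h after plating with compound (0.1% DMSO) plus 100 nM PGE2, in quadruplicate, replenished after 2–3 days. On day 6, z-stack imaging measured mean cyst area, normalised to DMSO+PGE2 (100%) and DMSO alone (0%).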

T2 sequence (Q07343 1-564 isoform Q07343-2): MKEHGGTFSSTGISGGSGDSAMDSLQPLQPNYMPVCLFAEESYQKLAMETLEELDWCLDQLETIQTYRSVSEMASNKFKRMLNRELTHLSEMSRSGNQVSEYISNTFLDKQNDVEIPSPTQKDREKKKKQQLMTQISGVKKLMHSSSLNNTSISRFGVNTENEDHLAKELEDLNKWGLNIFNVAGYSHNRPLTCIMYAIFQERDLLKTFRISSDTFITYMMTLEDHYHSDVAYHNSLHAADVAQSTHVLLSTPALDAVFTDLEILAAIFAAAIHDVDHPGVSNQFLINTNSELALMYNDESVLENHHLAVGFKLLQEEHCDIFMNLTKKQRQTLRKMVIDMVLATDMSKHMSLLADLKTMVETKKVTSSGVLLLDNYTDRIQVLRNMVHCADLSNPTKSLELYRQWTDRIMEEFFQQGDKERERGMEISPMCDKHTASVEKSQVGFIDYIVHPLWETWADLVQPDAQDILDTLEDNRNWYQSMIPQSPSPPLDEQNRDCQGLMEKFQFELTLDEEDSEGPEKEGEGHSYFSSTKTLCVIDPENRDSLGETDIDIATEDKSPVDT
T1 sequence (Q08499 1-745 isoform Q08499-6): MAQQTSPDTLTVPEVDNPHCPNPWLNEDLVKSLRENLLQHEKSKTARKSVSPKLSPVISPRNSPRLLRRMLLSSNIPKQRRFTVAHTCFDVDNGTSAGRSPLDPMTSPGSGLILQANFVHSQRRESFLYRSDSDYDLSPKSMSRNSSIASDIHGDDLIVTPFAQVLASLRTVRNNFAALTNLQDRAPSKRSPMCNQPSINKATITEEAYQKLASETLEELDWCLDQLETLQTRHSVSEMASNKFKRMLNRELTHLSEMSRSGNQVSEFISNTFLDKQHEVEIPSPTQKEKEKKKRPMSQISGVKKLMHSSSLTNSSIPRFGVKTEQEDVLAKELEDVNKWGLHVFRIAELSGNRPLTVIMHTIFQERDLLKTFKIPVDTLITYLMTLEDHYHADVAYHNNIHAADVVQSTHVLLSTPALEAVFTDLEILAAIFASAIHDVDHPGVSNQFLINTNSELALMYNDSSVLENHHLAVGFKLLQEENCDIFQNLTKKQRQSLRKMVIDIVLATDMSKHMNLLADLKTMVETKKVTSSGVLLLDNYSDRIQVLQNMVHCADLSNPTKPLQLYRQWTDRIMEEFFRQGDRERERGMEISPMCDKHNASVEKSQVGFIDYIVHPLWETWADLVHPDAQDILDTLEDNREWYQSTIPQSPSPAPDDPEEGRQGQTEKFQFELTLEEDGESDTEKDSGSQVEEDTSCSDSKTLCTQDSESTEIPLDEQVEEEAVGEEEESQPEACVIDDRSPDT

| SMILES | % increase in PDE4D5 (long isoform) activity at 100 μM* (%) [1] | % increase in PDE4B2 (short isoform) activity at 100 μM* [2] | activity at 3 µM [3] | activity at 10 µM (m-IMCD3 cells; 10 μM, read-out: % Cyst area* after incubation with 10 μM test compound) | activity at 3 µM (m-IMCD3 cells) |
| --- | --- | --- | --- | --- | --- |
| O=C(COc1ccc(F)cc1)N1CCc2nc(N3C4CCC3CNC4)ccc2C1 [Example 46, 1-(2-(3,8-diazabicyclo[3.2.1]octan-8-yl)-7,8-dihydro-1,6-naphthyridin-6(5H)-yl)-2-(4-fluorophenoxy)ethan-1-one] | 94% | 6% | 42% | – | – |
| O=C(Cc1ccc(F)cc1)N1CCc2nc(N3C4CCC3CNC4)ccc2C1 [Example 48, 1-(2-(3,8-diazabicyclo[3.2.1]octan-8-yl)-7,8-dihydro-1,6-naphthyridin-6(5H)-yl)-2-(4-fluorophenyl)ethan-1-one] | 31% | −9% | 57% | -5% | – |
| O=C(Cc1ccc(F)cc1)N1CCc2nc(N3C4CCC3CNC4)ncc2C1 [Example 139, 1-(2-(3,8-diazabicyclo[3.2.1]octan-8-yl)-7,8-dihydropyrido[4,3-d]pyrimidin-6(5H)-yl)-2-(4-fluorophenyl)ethan-1-one] | 28% | −1% | – | – | 1% |
| CCN1CC2CCC(C1)N2c1ccc2c(n1)CCN(S(=O)(=O)Cc1ccc(F)cc1)C2 [Example 159, 2-(3-ethyl-3,8-diazabicyclo[3.2.1]octan-8-yl)-6-((4-fluorobenzyl)sulfonyl)-5,6,7,8-tetrahydro-1,6-naphthyridine] | 35% | 2% | – | – | 1% |
| O=S(=O)(Cc1ccccc1)N1CCc2nc(N3C4CCC3CNC4)ccc2C1 [Example 162, 6-(benzylsulfonyl)-2-(3,8-diazabicyclo[3.2.1]octan-8-yl)-5,6,7,8-tetrahydro-1,6-naphthyridine] | – | – | 38% | – | -3% |
| CCN1CC2CCC(C1)N2c1ccc2c(n1)CCN(S(=O)(=O)Cc1ccccc1)C2 [Example 163, 6-(benzylsulfonyl)-2-(3-ethyl-3,8-diazabicyclo[3.2.1]octan-8-yl)-5,6,7,8-tetrahydro-1,6-naphthyridine] | – | – | 39% | – | -1% |
| O=C(N[C@H]1CCOc2ccccc21)N1CCc2nc(N3C4CCC3CNC4)ccc2C1 [Example 166, 2-(3,8-diazabicyclo[3.2.1]octan-8-yl)-N—((S)-chroman-4-yl)-7,8-dihydro-1,6-naphthyridine-6(5H)-carboxamide] | – | – | 35% | – | 3% |
